From patent publication US20230174939A1, “NOVEL ANUCLEATED CELLS AS A SOURCE FOR TREATMENT OF PLATELET RICH PLASMA DEPENDENT DISORDERS” (Stellular Bio, Inc., priority 2020, published 2023)

Assay: Body weight of rats on treatment in MIA osteoarthritis study
Assay type: in vivo, Sprague Dawley rats
Conditions: oral, positive control; treatment stopped early in the study
Protocol: Groups of 20 male Sprague Dawley rats were given a 2 mg intra-articular injection of MIA into the right knee on day 0. On day 18, rats were treated with a single dose of plasmalyte buffer (negative control), PLCs, PLC lysate, or human PRP by intra-articular injection into the right knee.

C[C@@H]1C[C@H]2[C@@H]3CCC4=CC(=O)C=C[C@]4(C)[C@@]3(F)[C@@H](O)C[C@]2(C)[C@@]1(O)C(=O)CO [dexamethasone]
body weight on treatment: began to lose weight
